Data on one substance can be found in paper PMC6422423, “Constitutively active BRS3 is a genuinely orphan GPCR in placental mammals” (PLoS Biology, 2019).

The target of one assay is T1, NMBR (Homo sapiens, UniProt P28336).
T1 construct: HA; expressed in transfected cells; host or cells: HEK293
Kind of assay: Radioligand binding (competition). To be noted: [125I]-Tyr-NMB. Here is the method: HEK293 cells were seeded in a 10-cm tissue culture dish at a density of 10^6 cells per dish and grown overnight at 37°C in growth medium. The following morning, 5 μg of different species’ BRS3 plasmids were transfected. After 6 h, the medium was replaced with growth medium. Cells were maintained at 37°C in a 5% CO2 atmosphere and used 48 h later for binding assays. The positive control group included transfected GRPR and NMBR; the test group consisted of transfected BRS3 from different species. […] The cell concentration was adjusted to between 0.05 and 4 × 10^6 cells/ml for each receptor such that less than 20% of the total added radioactive ligand was bound during the incubation, and the results were compared to cells transfected with GRPR or NMBR adjusted in concentration to bind a similar amount of ligand. After the incubation, 100 μl aliquots were added to 1.5-ml microfuge tubes, which contained 100 μl of binding buffer to determine the total radioactivity. […] The amount of radioactivity bound to the cells was measured in a Cobra II Gamma counter (Packard Instruments). Binding was expressed as the percentage of total radioactivity that was associated with the cell pellet. […] Each point was measured in duplicate, and each experiment was replicated at least four times. […] All the experiment data were calculated using 1 pM ligand-treated as 100% control.

Another assay concerns chicken BRS3 (cBRS3). Kind of assay: Intracellular calcium assay (WT and mutants). It is filed as cell-based, Gallus gallus. To be noted: 10 nM peptide, HEK293, Fluo8, cBRS3. Here is the method:
Intracellular calcium was measured using the non-wash calcium assay Fluo8 kit (ab112129, Abcam) according to the manufacturer’s instructions. Briefly, HEK293 cells were seeded in 24-well plates and were transfected with GRPR, NMBR, BRS3, or the empty vector plasmid pcDNA3.1-V5-His (300 ng) and incubated overnight at 37°C with 5% CO2. The next day, the cells were replated into a 96-well assay plate (black plate and clear bottom). After 12 h, growth media were aspirated, and calcium dye was added. […] The basal fluorescence intensity was recorded 15 times at 1 Hz for […]. The results were normalized to the average basal fluorescence intensity in ratio, and the peak response was used for the result calculation. Calcium fold was calculated using no stimulation data as standard value.

T1 sequence (P28336 whole entry, species assumed): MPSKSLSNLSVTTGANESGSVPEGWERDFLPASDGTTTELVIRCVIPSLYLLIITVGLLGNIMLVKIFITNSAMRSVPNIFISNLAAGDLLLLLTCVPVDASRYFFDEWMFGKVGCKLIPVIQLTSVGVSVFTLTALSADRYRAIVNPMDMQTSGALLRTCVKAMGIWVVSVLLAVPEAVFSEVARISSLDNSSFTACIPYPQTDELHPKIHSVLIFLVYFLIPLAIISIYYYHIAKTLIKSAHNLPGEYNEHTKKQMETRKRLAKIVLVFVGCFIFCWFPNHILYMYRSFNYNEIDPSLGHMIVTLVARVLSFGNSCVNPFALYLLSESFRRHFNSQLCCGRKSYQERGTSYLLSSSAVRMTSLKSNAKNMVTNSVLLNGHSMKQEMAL

Take “GSHWAVGHLM-NH2 [GRP, gastrin-releasing peptide]”: the “Inhibition of NMBR–NMB binding (in words)” value at NMBR is reported as “cannot inhibit”. Besides, the Calcium fold in the assay with chicken BRS3 (cBRS3) (replicate 1) stood at 5.1641 fold; in the assay on chicken BRS3 (cBRS3) (replicate 2), 5.5593 fold; with chicken BRS3 (cBRS3) (replicate 3) it was 5.8165 fold.
